Consider two compounds from US4778817A, “Naphthyl imidazolyl compounds and pharmaceutical compositions” (priority 1985, dated 1988).

Experiment [1] deals with laser-induced thrombosis. The experiment is described as follows: Inhibition of laser-induced thrombosis. The format is in vivo, Sprague-Dawley rats. The conditions noted are these: one hour before start, rat mesentery arterioles. The protocol: 3. Inhibition of laser-induced thrombosis
The investigations of the compounds according to the invention in the model of laser-induced thrombosis are carried out on male or female Sprague-Dawley rats with a body weight of about 200 g. The animals to be investigated are premedicated s.c. with 0.1 mg of atropine sulfate in solution, and anesthetized i.p. with 100 mg of ketamine hydrochloride and 4 mg of xylazine per kg of body weight. Arterioles from the mesentery, with a diameter of 12-25 μm, are used for the investigation. During the measurement, the exposed mesentery is hyperfused with warmed physiological NaCl (37° C.) or is covered with degassed liquid paraffin. The beam of a 4 W argon laser (supplied by Spectra Physics, Darmstadt, FRG) is introduced coaxially into the inverted ray path of a microscope (ICM 405, LD-Epilan 40/0.60; supplied by Zeiss, Oberkochen, FRG) by means of a ray adaptation and adjustment system (supplied by BTG, Munich, FRG). The wavelength used is 514.5 nm, with an energy above the objective of 40 mW. The single-shot exposure time is 1/15 sec. The diameter of the effective laser beam on the vessel is 10 μm, and with repeated exposure the next shot takes place 5 μm upstream in each case, directly on the vessel wall. All the measurement procedures are filmed by video camera (Sony, Trinicon tube) and stored in a recorder (Sony, U-matic 3/4). A survey image of the terminal vessels which are to be investigated is provided by the transillumination method using the same microscope with low magnification (LD-Epilan 8/0.20). A video-analyzer and a correlator are used to determine the rate of flow in the arterioles under investigation. […]
The number of shots needed to induce a defined thrombus was counted. The frequency of the laser flashes was one lesion every 2 minutes, all the thrombi with a minimum size of 1/4 of the vessel radius which were formed during the observation period being counted and measured. The results of the experiment were statistically analyzed using the X^2 test (L. Cavalli-Sforza, Biometrie, Stuttgart, 1969, page 49 et seq.).

Experiment [2] deals with human platelets. In words: Inhibition of the arachidonic acid-induced aggregation of human platelets in vitro. The note with it: human platelet-rich plasma; 2×10^-4 M arachidonic acid; preincubation 10 min at 37° C. The format is cell-based. Here is the method: 1. Inhibition of the arachidonic acid-induced aggregation of human platelets in vitro.
Blood is taken, by careful cannulation of the antecubital vein, from apparently healthy male and female volunteers, who have taken no medicaments in the preceding 10-day period, and is immediately stabilized with sodium citrate (ad. 0.38%). Platelet-rich plasma (PRP) is obtained in the supernatant by centrifugation at 140×g for 15 minutes, and the platelet content of this should be in the range 2.5-3.5×10^8 /ml (Coulter counter). The platelet aggregation is followed optically by measurement of the transmission of light in a Born aggregometer. The total volume of the test mix is 0.25 ml. The preincubation time at 37° C. with the test product is 10 min, and aggregation is then induced with 2×10^-4 M arachidonic acid. The test product is, as a rule, tested in five different concentrations in the PRP from three different donors. Dose-effect curves are drawn from the maximal aggregation amplitudes in each case, and the IC50 values* are determined graphically. The measurements are carried out in the period 1-6 hours after blood sampling. […]
The following IC50 values for the inhibition of the arachidonic acid-induced aggregation of human platelets in vitro were determined by the method described above for the compounds according to the invention: […]

The subject of experiment [3] is Thrombin-induced TXA2 release. In words: Thrombin-induced TXA2 release in platelet-rich human plasma in vitro (TXB2 determined radioimmunologically). Format: cell-based. The note with it: 0.5 h, relative to without test substance (=100%); for activity at 1 µM: test substance 10^-6 mol/l; for activity at 0.1 µM: test substance 10^-7 mol/l. The protocol:
2. Thrombin-induced TXA2 release in platelet-rich human plasma in vitro
Blood is taken, by careful cannulation of the antecubital vein, from apparently healthy male and female volunteers, who have taken no medicaments in the preceding 10-day period, and is immediately stabilized with sodium citrate (ad. 0.38%). Platelet-rich plasma (PRP) is obtained in the supernatant by centrifugation at 140×g for 15 minutes, and the platelet content of this should be in the range 2.5-3.5×10^8 /ml. The platelets are sedimented by renewed centrifugation (10 min at 2,000×g), and then resolubilized in Tyrode's solution (about 7×10^7 platelets/ml, total volume per measurement 0.5 ml). After addition of test substance, the mixture is incubated at 37° C. for 10 min, and then 7.2×10^-7 M arachidonic acid and 0.5 U thrombin are added, and incubation is carried out at 37° C. for 30 min. This is stopped in an ice bath and, after addition of tracer and TXB2 -specific antibodies (NEN, Dreieich), the TXB2 content is determined radioimmunologically (TXA2 is unstable under the experimental conditions and thus cannot be measured. The stable hydrolysis product TXB2 is measured in its place). The measured variable is the relative TXB2 content in the platelet incubations from two or three different donors with and without (=100%) the test substance.
The following figures for the TXB2 release after administration of the test substance were determined, for example, for the compounds according to the invention by the method described above: […]

SMILES strings stand for the structures. pIC50: −log10 of the molar value. Where a name gives a salt, the structure may show the parent alone.

With `Cc1cncn1Cc1ccc2cc(C(=O)O)ccc2c1.Cl` [Example 4, 6-(5-Methyl-1-imidazolyl)methyl-2-naphthoic acid hydrochloride], the “Number of laser shots to form a thrombus (compared with control)” value is “+16%” in experiment [1] (1 mg/kg p.o.), “+53%” in experiment [1] (5 mg/kg p.o.) and “+96%” in experiment [1] (10 mg/kg p.o.). The same compound gave a pIC50 in experiment [2] of 6.27. Also, the activity at 1 µM in experiment [3] amounted to 9%. The activity at 0.1 µM in experiment [3] turned out to be 19%. The activity at 0.01 µM in experiment [3] (test substance 10^-8 mol/l) is 98%.

Turning to `CC(c1ccc2cc(C(=O)O)ccc2c1)n1ccnc1` (stereo not shown) [Example 2, 6-[1-(1-Imidazolyl)ethyl]-2-naphthoic acid hydrochloride], the pIC50 in experiment [2] was 5.52. For the same compound, in experiment [3], the activity at 1 µM came out at 31% and the activity at 0.1 µM is 55%.
